# Assay results as given in patent US7351882B2, “Canola line 45H24” (Pioneer Hi-Bred International, Inc., priority 2005, dated 2008).
# Test system: Brassica napus variety 45H24
# Test: Herbicide resistance rating of canola variety 45H24 at standard recommended application rates
# Type: in vivo
# Settings: for Herbicide resistance (description): result in words
# Description: Herbicide Resistance: Resistance to various herbicides when applied at standard recommended application rates is expressed on a scale of 1 (resistant), 2 (tolerant), or 3 (susceptible).
compound,measurement,setting,value
O=C(O)CNCP(=O)(O)O [Glyphosate],Herbicide resistance (description),,resistant
same,Herbicide resistance (description),listed as glyphosate,resistance
same,Herbicide resistance (mean rating),"scale 0 = not tested, 1 = resistant, 2 = tolerant, 3 = susceptible",1.00
